Data published in PMC3977535, “Design and Synthesis of New Dual Binding Site Cholinesterase Inhibitors: in vitro Inhibition Studies with in silico Docking” (Letters in Drug Design & Discovery, 2014).
Like-named read-outs stand apart in the source and are kept apart here.

Columns and labels:
AChE = target: T1, AChE (Homo sapiens, UniProt P22303); assay: biochemical; assay type: biochemical; conditions: for inhibition at 500 µM: read-out: AChE Inhibition, Inhibition (%) at 0.5 mM
T1 construct: purchased Sigma Inc
T1 sequence (P22303 32-614): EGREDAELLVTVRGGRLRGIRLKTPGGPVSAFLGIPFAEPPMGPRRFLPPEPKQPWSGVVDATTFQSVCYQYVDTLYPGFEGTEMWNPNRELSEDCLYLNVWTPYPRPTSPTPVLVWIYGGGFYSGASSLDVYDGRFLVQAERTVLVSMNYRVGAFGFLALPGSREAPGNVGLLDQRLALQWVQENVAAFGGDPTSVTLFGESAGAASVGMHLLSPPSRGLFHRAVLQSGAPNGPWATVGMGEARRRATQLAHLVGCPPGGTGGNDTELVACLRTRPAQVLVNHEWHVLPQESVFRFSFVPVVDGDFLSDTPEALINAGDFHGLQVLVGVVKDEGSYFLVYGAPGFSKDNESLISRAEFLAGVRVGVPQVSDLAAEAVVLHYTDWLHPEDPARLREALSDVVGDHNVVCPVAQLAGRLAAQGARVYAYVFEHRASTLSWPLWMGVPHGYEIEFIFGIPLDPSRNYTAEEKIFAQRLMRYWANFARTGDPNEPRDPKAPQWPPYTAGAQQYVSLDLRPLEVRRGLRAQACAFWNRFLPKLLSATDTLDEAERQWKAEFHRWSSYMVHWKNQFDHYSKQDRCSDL
Method: (§1) The AChE and BChE inhibition activity was performed according to the method of Ellman with slight modifications. Total volume of the reaction mixture was 100 µL contained 60 µL Na2HPO4 buffer with concentration of 50 mM and pH 7.7. A 10 µL test compound (0.5 mM per well) was added, followed by the addition of 10 µL enzyme (0.005 unit AChE, 0.5 unit BChE per well, Sigma Inc). […] The reaction was initiated by the addition of 10 µL of 0.5 mM per well substrate (acetylthiocholine iodide or butyrylthiocholine bromide), followed by the addition of 10 µL DTNB (0.5 mM per well). […] Synergy HT (BioTek, USA) 96-well plate reader was used in all experiments. All experiments were carried out with their respective controls in triplicate. […] The percent inhibition was calculated by the help of following equation.
(§2) Inhibition%=Control−Test/Control×100

BChE = target: T2, BChE (Homo sapiens, UniProt P06276); assay: BChE inhibition assay (Ellman method with slight modifications); assay type: biochemical; conditions: for inhibition at 500 µM: read-out: BChE Inhibition, Inhibition (%) at 0.5 mM
T2 construct: purchased Sigma Inc
T2 sequence (P06276 29-602): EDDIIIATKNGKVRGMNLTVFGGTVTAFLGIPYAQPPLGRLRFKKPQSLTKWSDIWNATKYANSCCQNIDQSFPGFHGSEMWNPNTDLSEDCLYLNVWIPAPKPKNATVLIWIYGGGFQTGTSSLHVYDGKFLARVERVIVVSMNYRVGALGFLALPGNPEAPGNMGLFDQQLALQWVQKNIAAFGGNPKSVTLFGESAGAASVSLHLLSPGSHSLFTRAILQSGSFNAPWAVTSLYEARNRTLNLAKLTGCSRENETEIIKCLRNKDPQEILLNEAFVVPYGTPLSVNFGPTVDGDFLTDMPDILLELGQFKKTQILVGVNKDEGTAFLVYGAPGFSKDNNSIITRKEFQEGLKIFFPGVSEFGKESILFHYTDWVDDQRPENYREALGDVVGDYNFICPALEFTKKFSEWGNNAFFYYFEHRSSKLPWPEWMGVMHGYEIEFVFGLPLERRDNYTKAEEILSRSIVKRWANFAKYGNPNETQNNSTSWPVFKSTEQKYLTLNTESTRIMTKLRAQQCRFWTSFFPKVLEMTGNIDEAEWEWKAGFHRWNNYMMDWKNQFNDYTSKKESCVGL
Method: as §1, §2

[1] = 0.5 mM test compound, mean with SEM
[2] = mean with SEM, read-out: AChE Inhibition, IC50
[3] = mean with SEM, read-out: BChE Inhibition, IC50

SMILES	inhibition at 500 µM (AChE; [1])	IC50 (AChE; [2])	inhibition at 500 µM (BChE; [1])	IC50 (BChE; [3])	IC50 (AChE)	inhibition at 500 µM (AChE)	IC50 (BChE)	inhibition at 500 µM (BChE)	inhibitory activity against BChE (in words) (BChE)	inhibitory activity against AChE (in words) (AChE)
COC(=O)Cc1c[nH]c2ccccc12 [Compound 2]	70.61 ± 0.34%	138.5 ± 0.21 µM	59.82 ± 0.15%	184.2 ± 0.21 µM						
NNC(=O)Cc1c[nH]c2ccccc12 [Compound 3]					152.11 ± 0.07 µM	69.16 ± 0.25%	139.21 ± 0.07 µM	73.95 ± 0.67%		
O=C(Cc1c[nH]c2ccccc12)N/N=C/c1ccccc1 [Compound 4a]	63.11 ± 0.52%	198.61 ± 0.14 µM	79.58 ± 0.42%	86.31 ± 0.14 µM						
O=C(Cc1c[nH]c2ccccc12)N/N=C/c1ccccc1O [Compound 4b]	75.5 ± 0.33%	103.11 ± 0.05 µM	43.16 ± 0.18%						weak	
COc1ccc(/C=N/NC(=O)Cc2c[nH]c3ccccc23)cc1 [Compound 4c]	75.5 ± 0.56%	109.6 ± 0.11 µM	50.2 ± 0.69%							
Cc1ccc(/C=N/NC(=O)Cc2c[nH]c3ccccc23)cc1 [Compound 4d]	79.54 ± 0.54%	98.81 ± 0.14 µM	43.6 ± 0.55%						weak	
C/C(=N\NC(=O)Cc1c[nH]c2ccccc12)c1ccccc1 [Compound 4e]	66.86 ± 0.36%	174.51 ± 0.11 µM	68.43 ± 0.18%	146.21 ± 0.08 µM						
O=C(Cc1c[nH]c2ccccc12)NN=C(c1ccccc1)c1ccccc1 [Compound 4f]	89.3 ± 0.91%	91.21 ± 0.06 µM	89.51 ± 0.69%	59.81 ± 0.06 µM						
O=C(Cc1c[nH]c2ccccc12)N/N=C/c1ccc(Cl)cc1 [Compound 4g]	75.79 ± 0.25%	106.51 ± 0.07 µM	30.1 ± 0.58%							
CC(=O)NNC(=O)Cc1c[nH]c2ccccc12 [Compound 5a, N'-acetyl-2-(1H-indol-3-yl)acetohydrazide]	60.52 ± 0.25%	298.61 ± 0.15 µM	90.81 ± 0.69%	55.21 ± 0.12 µM						
O=C(Cc1c[nH]c2ccccc12)NNC(=O)C(F)(F)F [Compound 5b, N'-(2-(1H-indol-3-yl)acetyl)-2,2,2-trifluoroacetohydrazide]	75.22 ± 0.41%	152.31 ± 0.07 µM	86.64 ± 0.24%	68.91 ± 0.07 µM						
O=C(Cc1c[nH]c2ccccc12)NNC(=O)Oc1ccccc1 [Compound 5c, Phenyl 2-(2-(1H-indol-3-yl)acetyl)hydrazinecarboxylate]						55.91 ± 0.33%		39.29 ± 0.25%	weak	weak
Cc1ccc(S(=O)(=O)NNC(=O)Cc2c[nH]c3ccccc23)cc1 [Compound 6a, N'-(2-(1H-Indol-3-yl)acetyl)-4-methylbenzenesulfonohydrazide]	78.11 ± 0.36%	121.4 ± 0.16 µM	72.52 ± 0.33%	101.2 ± 0.16 µM						
O=C(Cc1c[nH]c2ccccc12)NNS(=O)(=O)c1ccccc1[N+](=O)[O-] [Compound 6b, N'-(2-(1H-Indol-3-yl)acetyl)-2-nitrobenzenesulfonohydrazide]	46.41 ± 0.21%		42.61 ± 0.42%						weak	weak
O=C(Cc1c[nH]c2ccccc12)NNS(=O)(=O)c1cccc([N+](=O)[O-])c1 [Compound 6c, N'-(2-(1H-Indol-3-yl)acetyl)-3-nitrobenzenesulfonohydrazide]	56.21 ± 0.25%		81.24 ± 0.52%	78.51 ± 0.21 µM						weak
O=C(Cc1c[nH]c2ccccc12)NNS(=O)(=O)c1ccc([N+](=O)[O-])cc1 [Compound 6d, N'-(2-(1H-Indol-3-yl)acetyl)-4-nitrobenzenesulfonohydrazide]	58.62 ± 0.52%		63.69 ± 0.61%	< 400 µM						weak
O=C(Cc1c[nH]c2ccccc12)NNS(=O)(=O)c1ccc(Br)cc1 [Compound 6e, N'-(2-(1H-indol-3-yl)acetyl)-4-bromobenzenesulfonohydrazide]	90.78 ± 0.32%	68.52 ± 0.04 µM	81.02 ± 0.14%	73.52 ± 0.04 µM						
